pIC50, pKd: −log10 of the molar value. Several values for one entry are separate records, joined by “and”; a condition that tells them apart may be missing. Identical values can stand only once. Entries after “also recorded” stand apart in the source; their conditions may differ. Like-named read-outs stand apart in the source and are kept apart here.
Tests used:
U251-EGFRvIII cells = test: Viability/proliferation of U251-EGFRvIII cells; type: cell-based, human
Experimental: Cells were seeded in 96-well plates at a density of 1,000 cells per well and treated with two-fold serial dilutions of compounds with a starting concentration of 20 μM. Cell viability was assessed after three days of treatment by CellTiter-Glo (Promega). Curve fitting analysis and IC50 value determination were performed using GraphPad Prism 8.
(§1) In parallel, the conventional human GBM U251 cell line was used as a surrogate model for both in vitro and in vivo studies. U251 cells were engineered to stably express EGFRvIII (U251-EGFRvIII) via retroviral-mediated gene transfer.

P-gp, Bcrp = test: Efflux liability; type: in vitro ADME; settings: Compound 1, own data
Excerpt: Data obtained in a previously published report on brain penetration of EGFR TKIs in GMB was compared to brain penetrance data described herein (Table 5). […] Each of these drugs, with the exception of vizimpro, appeared to be a substrate of P-gp and Bcrp (efflux transporter proteins).

[1] = target: ALK, EGFR and FLT3 mutants (Homo sapiens, UniProt P00533); test: Targeted kinase binding constants, mutant kinases (summary); settings: read-out: mutant kinase binding (Kd) for several EGFR single and double mutants
Sequence of ALK, EGFR and FLT3 mutants (P00533 25-1210 limits assumed, change not shown): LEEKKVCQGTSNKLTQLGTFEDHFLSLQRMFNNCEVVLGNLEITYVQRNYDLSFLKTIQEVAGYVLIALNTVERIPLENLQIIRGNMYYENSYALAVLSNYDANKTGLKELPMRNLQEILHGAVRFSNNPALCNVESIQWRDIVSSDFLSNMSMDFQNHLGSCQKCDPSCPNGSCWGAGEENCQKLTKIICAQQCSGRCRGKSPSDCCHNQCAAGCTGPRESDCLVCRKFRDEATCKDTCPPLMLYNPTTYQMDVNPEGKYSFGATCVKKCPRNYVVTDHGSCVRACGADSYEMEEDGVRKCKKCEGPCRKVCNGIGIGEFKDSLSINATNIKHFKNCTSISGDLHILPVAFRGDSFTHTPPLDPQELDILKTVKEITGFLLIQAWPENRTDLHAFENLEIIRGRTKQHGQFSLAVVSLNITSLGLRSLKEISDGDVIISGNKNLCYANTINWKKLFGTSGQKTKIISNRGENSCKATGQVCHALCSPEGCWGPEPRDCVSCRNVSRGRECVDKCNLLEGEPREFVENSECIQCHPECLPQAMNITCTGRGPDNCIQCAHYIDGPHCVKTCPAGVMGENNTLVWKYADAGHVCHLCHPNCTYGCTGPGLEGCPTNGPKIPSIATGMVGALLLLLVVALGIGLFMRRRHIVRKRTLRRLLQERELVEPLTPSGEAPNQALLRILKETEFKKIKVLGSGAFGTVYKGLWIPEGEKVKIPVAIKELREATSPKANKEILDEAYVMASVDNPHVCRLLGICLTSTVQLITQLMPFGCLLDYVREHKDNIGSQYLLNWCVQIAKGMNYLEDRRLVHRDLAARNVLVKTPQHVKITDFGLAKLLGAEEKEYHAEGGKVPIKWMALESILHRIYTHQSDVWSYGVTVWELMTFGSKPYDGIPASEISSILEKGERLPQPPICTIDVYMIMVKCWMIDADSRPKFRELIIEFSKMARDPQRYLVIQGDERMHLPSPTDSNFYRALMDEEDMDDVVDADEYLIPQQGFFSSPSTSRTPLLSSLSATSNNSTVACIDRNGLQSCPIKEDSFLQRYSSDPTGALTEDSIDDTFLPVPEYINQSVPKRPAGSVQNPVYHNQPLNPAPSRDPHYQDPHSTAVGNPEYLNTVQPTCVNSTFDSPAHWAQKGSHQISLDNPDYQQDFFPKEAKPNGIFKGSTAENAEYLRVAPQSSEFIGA
Experimental: Compound 1 and Compound 2 (major metabolite) were evaluated in a panel of 468 human kinases and disease relevant mutant variants. Compound 1 and Compound 2 bound to few non-mutant kinases at <1% of control. […] While there is some variability between Compound 1 and Compound 2, it is clear that both compounds are very effective at binding to a large panel of mutant kinases. […] Binding constant to wild type EGFR was 4.9 nM.

[2] = Cardiovascular function (telemetry); type: in vivo, dog
Experimental: This arrythmia was not associated with maximum plasma concentration (Cmax) or Tmax of either parent or metabolite. No definitive link to the test article could be identified. Given the unexplained reversible arrythmia in this high-dose (100 mg/kg) telemetry dog, routine electrocardiogram (ECG) monitoring in Phase 1 is recommended.

[3] = Pharmacokinetics in rats (IV, PO); type: in vivo, rat; settings: for bioavailability: independent of dose
Excerpt: Exposure was generally dose proportional.

CYP3A4/3A5 = test: CYP phenotyping, human liver microsomes; type: in vitro ADME
Excerpt: Metabolism, inhibition and induction were not observed with other CYPs. Potential DDI interactions exist with drugs that are inhibitors of CYP3A4-T or those metabolized by CYP3A4/3A5; these DDI risks will be better defined once there are human pharmacokinetics (PK) data.

[4] = Comparative plasma protein binding; type: in vitro ADME; settings: human, monkey, dog, rat, mouse, across species, independent of concentration, read-out: plasma protein bound
Excerpt: Compound 1 was highly protein bound (95.6 to 98.7%) to plasma protein across species. Binding was independent of concentration.

[5] = Comparative metabolism and metabolic stability in hepatocytes; type: in vitro ADME, human, monkey, dog, rat and mouse
Excerpt: Compound 2 was a major demethylated active metabolite in all species and with the exception of a minor metabolite, M48 in human hepatocytes, all human metabolites were represented in the rat and/or dog, the toxicology species.

[6] = In vivo metabolite identification; set-up: species or system rat, dog and monkey
Excerpt: In in vivo studies in rat, dog and monkey, 35 metabolites were identified. The major circulating compound in all species was parent compound; parent was also a major component in rat feces. Compound 2, demethylated metabolite, was a major active metabolite in all species in plasma and in rat feces. M34, glutathione conjugation and hydrolysis and acetylation metabolite, was a major metabolite in rat urine. Compound 1 was extensively metabolized during excretion with 31 metabolites in rat urine and 32 metabolites in rat feces.

[7] = Oral rat dose-range toxicity study; type: in vivo
Experimental: Male and female Sprague-Dawley rats were given Compound 1 orally by gavage either once (30, 100, 500, 1000 mg/kg/day) or once daily for up to 14 days (30, 100, 300 mg/kg/day). […] […]; this group was terminated on Day 9. […] The STD10 was estimated to be 100 mg/kg/day in this study.

[8] = system: phosphorylated EGFR and cell viability; test: In vitro GBM studies, summary (phosphorylated EGFR and cell viability); type: cell-based; settings: GBM models; read-out: IC50 range in in vitro studies targeting decreases in phosphorylated EGFR and cell viability
Excerpt: Compound 1, a third-generation tyrosine kinase inhibitor, is under development for GBM (Wang 2020) Compound 1 binds covalently to its target.

[9] = system: PC9GR4 cells (Ex19del/T790M); settings: PC9GR4 cell line; Wang 2020; read-out: IC50, growth inhibition; cited from earlier work
EGFRvIII [10] = target: T1, EGFRvIII (Homo sapiens, UniProt P00533, DELINS30-297G); test: EGFRvIII phosphorylation in 293-EGFRvIII cells (western blot); type: cell-based; set-up: expressed in transfected cells; settings: 6 hours, read-out: IC50 on EGFRvIII phosphorylation (pEGFRvIII1068)
T1 sequence (P00533 with tags, fused parts or gaps DELINS30-297G): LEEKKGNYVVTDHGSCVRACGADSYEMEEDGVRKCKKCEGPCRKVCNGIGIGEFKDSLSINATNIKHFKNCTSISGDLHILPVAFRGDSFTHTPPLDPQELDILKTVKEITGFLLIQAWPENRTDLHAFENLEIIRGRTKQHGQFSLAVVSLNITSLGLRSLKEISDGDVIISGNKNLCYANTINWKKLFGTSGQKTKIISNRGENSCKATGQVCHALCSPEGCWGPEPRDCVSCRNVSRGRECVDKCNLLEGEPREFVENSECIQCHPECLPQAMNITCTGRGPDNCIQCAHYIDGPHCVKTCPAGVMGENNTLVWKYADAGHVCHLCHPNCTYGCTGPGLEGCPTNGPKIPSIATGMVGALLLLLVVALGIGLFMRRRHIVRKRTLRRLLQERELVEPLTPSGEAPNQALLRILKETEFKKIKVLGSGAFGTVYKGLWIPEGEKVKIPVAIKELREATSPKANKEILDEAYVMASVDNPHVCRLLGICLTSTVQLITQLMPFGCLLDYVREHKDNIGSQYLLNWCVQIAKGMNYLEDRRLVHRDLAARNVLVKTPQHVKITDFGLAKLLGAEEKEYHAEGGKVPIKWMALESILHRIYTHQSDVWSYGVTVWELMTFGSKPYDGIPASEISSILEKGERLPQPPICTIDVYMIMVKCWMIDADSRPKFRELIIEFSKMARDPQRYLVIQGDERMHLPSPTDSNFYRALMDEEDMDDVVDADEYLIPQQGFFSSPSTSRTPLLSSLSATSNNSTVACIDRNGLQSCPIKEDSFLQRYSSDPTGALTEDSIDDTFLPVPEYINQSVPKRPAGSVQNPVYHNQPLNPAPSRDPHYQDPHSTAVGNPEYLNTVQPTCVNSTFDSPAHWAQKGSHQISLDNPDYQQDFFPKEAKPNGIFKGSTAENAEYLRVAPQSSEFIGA

BT333 cells = test: Cell viability, patient-derived GBM line BT333; settings: Homo sapiens, 72 h
Experimental: Primary human glioblastoma lines BT112, BT179 and BT333 were maintained in NeuroCult proliferation medium (human) (StemCell Technologies) with 20 ng/ml EGF, 10 ng/ml FGF and 0.0002% Heparin.

EGFRvIII [11] = target: T1, EGFRvIII; test: EGFRvIII phosphorylation in U251-EGFRvIII cells (western blot); type: cell-based; set-up: expressed in transfected cells; host or cells: U251 (human GBM cell line), retroviral transduction; settings: 20 hours, read-out: IC50 on EGFRvIII phosphorylation (pEGFRvIII1068)
Excerpt: Anti-a-Tubulin antibody was purchased from Sigma.
as §1

Question: Which results are given for `C=CC(=O)Nc1cc(Nc2nccc(-n3ccc4cccnc43)n2)c(OC)cc1N(C)CCN(C)C` [Compound 1, N-(5-((4-(1H-pyrrolo[2,3-b]pyridin-1-yl)pyrimidin-2-yl)amino)-2-((2-(dimethylamino)ethyl)(methyl)amino)-4-methoxyphenyl)acrylamide]?
Answer: pIC50 (U251-EGFRvIII cells; Homo sapiens, values of the text and Table 9, read-out: IC50, viability of U251-EGFRvIII cells): 5.82; pIC50 (U251-EGFRvIII cells; Homo sapiens, Table 2, read-out: IC50 on U251-EGFRvIII cell proliferation): 5.83; cell survival, fold less than that of erlotinib (U251-EGFRvIII cells; U251-EGFRvIII cells): 9 fold; cell survival, fold less than that of gefitinib (U251-EGFRvIII cells; U251-EGFRvIII cells): 13 fold; pIC50 (U251-EGFRvIII cells; values of the text and Table 9, read-out: IC50, viability of U251-EGFRvIII cells): 5.82; Efflux Liability (P-gp, Bcrp): Not a substrate; pKd [1]: > 9.00; dogs with reversible ventricular conduction disturbance ([2]; 100 mg/kg, 10 to 24 hours after dose): 1 of 4; QTc, blood pressure and cardiac intervals ([2]; doses up to 100 mg/kg): no QTc signals; also recorded: no adverse effects on blood pressure or cardiac intervals; Cmax ([2]; plasma, dog, 100 mg/kg Compound 1 PO, M38 as metabolite, read-out: estimated single-dose Cmax): 2620 ng/mL and 5.4 µM; clearance [3]: moderately high clearance; also recorded: moderately high-clearance; also recorded: Moderate high-clearance; volume of distribution [3]: large volume of distribution; clearance ([3]; listed as Compound 11): relatively high clearance rate; bioavailability ([3]; rat, in vivo, po): ~50%; half-life ([3]; rat, plasma, Compound 2 as metabolite): ~5 h; Tmax ([3]; rat, plasma, po, Compound 2 as metabolite): ~5 h; bioavailability ([3]; rat, plasma, po): 50%; primarily metabolizing CYP (CYP3A4/3A5): CYP3A4/3A5; fraction unbound [4]: 0.013 to 0.044; metabolic stability ([5]; hepatocytes, species comparison): greatest in human hepatocytes; number of metabolites detected in hepatocytes ([5]; human, monkey, dog, rat and/or mouse hepatocytes): 22; number of metabolites in rat feces ([6]; in vivo): 32; number of metabolites in rat urine ([6]; in vivo): 31; number of metabolites identified in vivo ([6]; rat, dog and monkey): 35; tolerability of a single oral dose ([7]; 30 to 1000 mg/kg): well tolerated; toxicity at 30 mg/kg/day ([7]; 14 days): No significant toxicity; STD10 ([7]; up to 14 days oral, estimated): 100 mg/kg/day; pIC50 [8]: 5.48 to 6.77; pIC50 [9]: 8.44; pIC50 (EGFRvIII [10]): 6.72; pIC50 (BT333 cells): 5.48; pIC50 (EGFRvIII [11]): 6.76 and 6.77

From US20240293405A1, “(1H-PYRROLO[2,3-B]PYRIDIN-1-YL)PYRIMIDIN-2-YL-AMINO-PHENYL-ACRYLAMIDE INHIBITORS OF EGFR FOR USE IN THE TREATMENT OF BRAIN TUMORS” (Dana-Farber Cancer Institute, Inc., priority 2021, published 2024)
